Results as given in ChEMBL document CHEMBL5291721, “A preclinical secondary pharmacology resource illuminates target-adverse drug reaction associations of marketed drugs” (Nat Commun, 2023).

Key:
[1] = biological target: T1, Neuropeptide Y receptor type 1 (Homo sapiens, UniProt P25929); conditions: read-out: AC50
T1 sequence (P25929 whole entry): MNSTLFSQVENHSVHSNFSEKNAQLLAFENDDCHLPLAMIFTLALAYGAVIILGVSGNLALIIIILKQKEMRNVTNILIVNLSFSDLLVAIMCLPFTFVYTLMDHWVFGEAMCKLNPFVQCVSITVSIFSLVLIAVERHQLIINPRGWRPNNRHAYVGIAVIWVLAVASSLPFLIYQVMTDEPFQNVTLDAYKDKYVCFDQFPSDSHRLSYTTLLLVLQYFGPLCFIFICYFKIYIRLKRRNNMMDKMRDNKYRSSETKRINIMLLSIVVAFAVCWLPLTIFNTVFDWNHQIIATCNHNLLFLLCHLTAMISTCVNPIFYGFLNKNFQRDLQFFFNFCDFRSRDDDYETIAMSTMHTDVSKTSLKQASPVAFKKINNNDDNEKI

[2] = biological target: Voltage-gated inwardly rectifying potassium channel KCNH2 (Homo sapiens, UniProt Q12809); format: functional
Melanocortin receptor 3 = Melanocortin receptor 3 (Homo sapiens, UniProt P41968)
[3] = biological target: T2, Alpha-2C adrenergic receptor (Homo sapiens, UniProt P18825); format: functional
T2 sequence (P18825 whole entry): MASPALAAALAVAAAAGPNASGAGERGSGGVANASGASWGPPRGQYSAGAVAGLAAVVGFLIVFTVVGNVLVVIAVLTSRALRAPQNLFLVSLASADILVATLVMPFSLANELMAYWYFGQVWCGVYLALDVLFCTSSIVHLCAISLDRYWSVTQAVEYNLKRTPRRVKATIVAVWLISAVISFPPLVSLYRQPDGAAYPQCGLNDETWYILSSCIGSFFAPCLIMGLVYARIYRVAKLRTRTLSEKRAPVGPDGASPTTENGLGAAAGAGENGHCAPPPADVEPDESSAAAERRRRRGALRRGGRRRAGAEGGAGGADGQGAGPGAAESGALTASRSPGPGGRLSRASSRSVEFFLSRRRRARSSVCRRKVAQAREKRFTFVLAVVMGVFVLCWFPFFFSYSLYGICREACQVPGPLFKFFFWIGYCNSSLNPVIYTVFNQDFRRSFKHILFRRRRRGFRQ

Histamine H1 receptor = Histamine H1 receptor (Homo sapiens, UniProt P35367)
Vasopressin V2 receptor = Vasopressin V2 receptor (Homo sapiens, UniProt P30518)
Histamine H2 receptor = Histamine H2 receptor (Homo sapiens, UniProt P25021); format: functional, cell-based
[4] = biological target: T3, Prostaglandin G/H synthase 1 (Rattus norvegicus, UniProt Q63921); format: functional
T3 sequence (Q63921 whole entry): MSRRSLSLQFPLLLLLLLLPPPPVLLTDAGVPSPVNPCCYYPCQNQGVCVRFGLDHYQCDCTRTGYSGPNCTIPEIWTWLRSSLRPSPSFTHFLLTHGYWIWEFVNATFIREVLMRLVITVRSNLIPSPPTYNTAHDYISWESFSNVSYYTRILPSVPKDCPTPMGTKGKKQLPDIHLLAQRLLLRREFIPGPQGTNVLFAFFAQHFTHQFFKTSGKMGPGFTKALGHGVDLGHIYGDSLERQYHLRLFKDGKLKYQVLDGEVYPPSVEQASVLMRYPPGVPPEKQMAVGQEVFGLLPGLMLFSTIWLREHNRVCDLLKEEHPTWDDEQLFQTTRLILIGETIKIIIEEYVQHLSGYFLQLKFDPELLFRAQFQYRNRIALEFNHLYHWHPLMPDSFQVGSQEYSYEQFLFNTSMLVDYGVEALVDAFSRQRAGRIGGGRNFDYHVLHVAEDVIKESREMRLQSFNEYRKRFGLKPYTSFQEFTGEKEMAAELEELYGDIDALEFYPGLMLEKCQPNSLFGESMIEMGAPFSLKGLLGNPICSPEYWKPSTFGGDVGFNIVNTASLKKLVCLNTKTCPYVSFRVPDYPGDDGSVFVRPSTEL

Histamine H3 receptor = Histamine H3 receptor (Homo sapiens, UniProt Q9Y5N1)
Adenosine receptor A1 = biological target: T4, Adenosine receptor A1 (Homo sapiens, UniProt P30542)
T4 sequence (P30542 whole entry): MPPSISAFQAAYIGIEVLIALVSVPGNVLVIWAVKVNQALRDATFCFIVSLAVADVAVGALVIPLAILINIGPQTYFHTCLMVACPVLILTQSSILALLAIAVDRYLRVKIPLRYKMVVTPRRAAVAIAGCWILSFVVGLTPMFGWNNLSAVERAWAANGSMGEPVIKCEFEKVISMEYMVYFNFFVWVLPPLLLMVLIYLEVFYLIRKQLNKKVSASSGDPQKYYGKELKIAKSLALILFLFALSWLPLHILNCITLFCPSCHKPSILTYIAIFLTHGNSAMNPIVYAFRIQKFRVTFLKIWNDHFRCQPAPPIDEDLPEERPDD

[5] = biological target: Delta-type opioid receptor (Homo sapiens, UniProt P41143)
D(3) dopamine receptor = D(3) dopamine receptor (Homo sapiens, UniProt P35462)
[6] = biological target: Glutamate receptor ionotropic, NMDA 1 (Rattus norvegicus, UniProt P35439)
[7] = biological target: Gamma-aminobutyric acid receptor subunit alpha-1 (Rattus norvegicus, UniProt P62813); format: functional
[8] = biological target: T5, 5-hydroxytryptamine receptor 2C (Homo sapiens, UniProt P28335)
T5 sequence (P28335 whole entry): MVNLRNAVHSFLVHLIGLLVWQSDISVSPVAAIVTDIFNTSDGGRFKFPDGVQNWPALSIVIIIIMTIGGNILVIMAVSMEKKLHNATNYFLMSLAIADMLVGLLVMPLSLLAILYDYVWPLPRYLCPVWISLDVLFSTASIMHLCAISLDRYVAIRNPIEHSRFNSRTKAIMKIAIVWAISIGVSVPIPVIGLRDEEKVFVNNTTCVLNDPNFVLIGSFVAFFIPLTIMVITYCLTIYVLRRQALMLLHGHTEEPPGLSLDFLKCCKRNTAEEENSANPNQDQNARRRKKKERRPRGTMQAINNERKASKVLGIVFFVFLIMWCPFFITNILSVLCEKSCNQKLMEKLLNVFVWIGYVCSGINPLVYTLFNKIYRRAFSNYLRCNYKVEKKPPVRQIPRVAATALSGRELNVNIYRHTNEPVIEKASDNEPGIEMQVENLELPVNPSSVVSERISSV

[9] = biological target: Beta-1 adrenergic receptor (Homo sapiens, UniProt P08588); format: functional
Also: assay procedure not described here.

Voltage-gated inwardly rectifying potassium channel KCNH2, sequence (Q12809 whole entry): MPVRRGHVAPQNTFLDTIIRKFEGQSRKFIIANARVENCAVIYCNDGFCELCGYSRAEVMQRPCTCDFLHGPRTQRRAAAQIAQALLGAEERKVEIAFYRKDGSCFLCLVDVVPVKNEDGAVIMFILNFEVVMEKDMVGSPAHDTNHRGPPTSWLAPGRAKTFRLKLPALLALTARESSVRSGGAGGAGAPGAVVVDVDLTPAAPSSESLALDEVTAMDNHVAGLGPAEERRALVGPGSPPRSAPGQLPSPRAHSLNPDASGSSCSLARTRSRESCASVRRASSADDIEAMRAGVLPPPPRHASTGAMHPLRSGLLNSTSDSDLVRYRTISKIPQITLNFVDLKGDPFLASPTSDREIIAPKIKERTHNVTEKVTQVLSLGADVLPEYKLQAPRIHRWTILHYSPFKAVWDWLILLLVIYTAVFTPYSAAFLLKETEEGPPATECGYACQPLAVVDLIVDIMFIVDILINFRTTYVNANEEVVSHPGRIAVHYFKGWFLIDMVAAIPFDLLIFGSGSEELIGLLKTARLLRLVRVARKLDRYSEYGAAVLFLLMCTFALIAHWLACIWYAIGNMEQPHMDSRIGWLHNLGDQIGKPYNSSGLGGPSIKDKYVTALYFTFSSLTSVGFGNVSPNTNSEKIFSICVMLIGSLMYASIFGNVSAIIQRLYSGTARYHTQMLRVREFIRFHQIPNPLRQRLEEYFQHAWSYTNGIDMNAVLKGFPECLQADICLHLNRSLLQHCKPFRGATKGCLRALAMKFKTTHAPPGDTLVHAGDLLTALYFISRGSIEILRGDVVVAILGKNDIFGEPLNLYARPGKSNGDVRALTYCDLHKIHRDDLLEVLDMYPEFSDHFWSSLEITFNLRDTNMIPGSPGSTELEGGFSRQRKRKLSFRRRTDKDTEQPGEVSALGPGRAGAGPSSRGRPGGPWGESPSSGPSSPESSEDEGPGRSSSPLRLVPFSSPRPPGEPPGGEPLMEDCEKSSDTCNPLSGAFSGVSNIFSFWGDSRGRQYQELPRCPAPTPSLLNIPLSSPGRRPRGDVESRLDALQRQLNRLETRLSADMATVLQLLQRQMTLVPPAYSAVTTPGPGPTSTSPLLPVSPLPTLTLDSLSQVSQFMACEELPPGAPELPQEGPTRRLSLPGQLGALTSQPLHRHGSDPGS
Gamma-aminobutyric acid receptor subunit alpha-1, sequence (P62813 whole entry): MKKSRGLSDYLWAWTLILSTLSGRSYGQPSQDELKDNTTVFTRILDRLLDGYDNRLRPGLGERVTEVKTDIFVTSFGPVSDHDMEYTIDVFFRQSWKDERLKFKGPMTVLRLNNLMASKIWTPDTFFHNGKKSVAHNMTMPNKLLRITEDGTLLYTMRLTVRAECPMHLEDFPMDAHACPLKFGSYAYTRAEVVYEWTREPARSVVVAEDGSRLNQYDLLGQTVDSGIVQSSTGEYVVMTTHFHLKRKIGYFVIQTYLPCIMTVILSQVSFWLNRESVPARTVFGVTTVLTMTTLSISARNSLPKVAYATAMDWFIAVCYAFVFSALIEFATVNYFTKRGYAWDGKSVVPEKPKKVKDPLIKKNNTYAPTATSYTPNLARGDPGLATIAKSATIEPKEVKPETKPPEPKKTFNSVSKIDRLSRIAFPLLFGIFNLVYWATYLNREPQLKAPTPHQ
Histamine H1 receptor, sequence (P35367 whole entry): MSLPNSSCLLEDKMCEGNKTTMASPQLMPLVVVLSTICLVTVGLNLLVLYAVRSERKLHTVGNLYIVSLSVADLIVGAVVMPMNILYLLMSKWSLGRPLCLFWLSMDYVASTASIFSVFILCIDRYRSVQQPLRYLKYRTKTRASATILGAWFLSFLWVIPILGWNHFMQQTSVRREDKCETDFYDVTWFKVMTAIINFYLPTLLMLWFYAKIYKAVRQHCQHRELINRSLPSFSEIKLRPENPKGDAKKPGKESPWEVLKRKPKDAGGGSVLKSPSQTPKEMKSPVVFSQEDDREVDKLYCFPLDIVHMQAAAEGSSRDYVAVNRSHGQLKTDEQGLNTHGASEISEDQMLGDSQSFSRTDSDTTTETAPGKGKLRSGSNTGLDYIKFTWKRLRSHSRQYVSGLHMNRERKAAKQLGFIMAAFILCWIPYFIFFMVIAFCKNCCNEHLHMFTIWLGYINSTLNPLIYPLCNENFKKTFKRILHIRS
Histamine H2 receptor, sequence (P25021 whole entry): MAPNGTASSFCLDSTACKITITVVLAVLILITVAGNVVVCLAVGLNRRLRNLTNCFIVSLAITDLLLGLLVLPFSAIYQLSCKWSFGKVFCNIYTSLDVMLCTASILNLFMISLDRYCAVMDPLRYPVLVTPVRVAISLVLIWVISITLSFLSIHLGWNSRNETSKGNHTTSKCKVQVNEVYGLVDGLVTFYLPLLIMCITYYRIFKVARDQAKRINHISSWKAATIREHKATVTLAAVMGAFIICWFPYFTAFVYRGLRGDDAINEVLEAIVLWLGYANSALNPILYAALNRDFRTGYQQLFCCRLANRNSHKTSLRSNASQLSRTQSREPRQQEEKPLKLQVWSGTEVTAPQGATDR
Delta-type opioid receptor, sequence (P41143 whole entry): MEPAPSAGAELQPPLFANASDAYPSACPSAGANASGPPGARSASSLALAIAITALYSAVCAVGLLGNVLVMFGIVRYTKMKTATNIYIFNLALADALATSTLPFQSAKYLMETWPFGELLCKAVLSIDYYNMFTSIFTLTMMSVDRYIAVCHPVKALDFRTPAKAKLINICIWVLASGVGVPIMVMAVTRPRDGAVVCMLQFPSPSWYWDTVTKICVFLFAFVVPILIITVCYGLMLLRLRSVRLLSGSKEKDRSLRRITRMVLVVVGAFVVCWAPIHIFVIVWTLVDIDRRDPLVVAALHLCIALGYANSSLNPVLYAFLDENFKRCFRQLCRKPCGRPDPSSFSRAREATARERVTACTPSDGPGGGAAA
Beta-1 adrenergic receptor, sequence (P08588 whole entry): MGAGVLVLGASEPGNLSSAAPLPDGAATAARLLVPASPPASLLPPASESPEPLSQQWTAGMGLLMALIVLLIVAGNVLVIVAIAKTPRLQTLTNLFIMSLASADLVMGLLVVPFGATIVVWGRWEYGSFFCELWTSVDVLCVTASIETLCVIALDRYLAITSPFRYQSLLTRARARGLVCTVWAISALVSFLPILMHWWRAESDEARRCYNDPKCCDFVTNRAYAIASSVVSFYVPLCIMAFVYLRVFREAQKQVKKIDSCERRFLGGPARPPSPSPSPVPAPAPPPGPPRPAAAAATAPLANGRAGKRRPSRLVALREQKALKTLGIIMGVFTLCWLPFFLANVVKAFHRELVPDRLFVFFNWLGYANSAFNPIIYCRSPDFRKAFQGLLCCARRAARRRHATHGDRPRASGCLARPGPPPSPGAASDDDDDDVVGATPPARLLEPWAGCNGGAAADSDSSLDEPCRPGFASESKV
D(3) dopamine receptor, sequence (P35462 whole entry): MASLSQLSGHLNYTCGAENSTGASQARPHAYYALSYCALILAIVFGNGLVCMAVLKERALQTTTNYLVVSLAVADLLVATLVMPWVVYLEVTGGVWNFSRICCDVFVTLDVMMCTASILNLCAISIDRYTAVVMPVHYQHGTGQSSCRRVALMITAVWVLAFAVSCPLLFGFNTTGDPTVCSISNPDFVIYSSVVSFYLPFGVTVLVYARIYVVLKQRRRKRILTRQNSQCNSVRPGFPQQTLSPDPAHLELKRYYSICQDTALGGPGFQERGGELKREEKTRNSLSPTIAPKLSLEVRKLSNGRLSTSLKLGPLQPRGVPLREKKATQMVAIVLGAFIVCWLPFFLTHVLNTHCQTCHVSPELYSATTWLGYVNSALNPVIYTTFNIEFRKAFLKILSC
Melanocortin receptor 3, sequence (P41968 whole entry): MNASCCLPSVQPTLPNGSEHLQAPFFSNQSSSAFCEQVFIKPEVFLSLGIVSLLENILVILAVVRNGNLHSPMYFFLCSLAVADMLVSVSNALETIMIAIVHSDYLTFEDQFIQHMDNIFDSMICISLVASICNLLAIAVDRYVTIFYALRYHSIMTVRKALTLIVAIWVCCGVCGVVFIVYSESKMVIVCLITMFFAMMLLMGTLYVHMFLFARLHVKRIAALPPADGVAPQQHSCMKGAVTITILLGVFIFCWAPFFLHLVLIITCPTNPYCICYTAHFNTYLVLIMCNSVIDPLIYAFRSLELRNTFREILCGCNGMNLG
Histamine H3 receptor, sequence (Q9Y5N1 whole entry): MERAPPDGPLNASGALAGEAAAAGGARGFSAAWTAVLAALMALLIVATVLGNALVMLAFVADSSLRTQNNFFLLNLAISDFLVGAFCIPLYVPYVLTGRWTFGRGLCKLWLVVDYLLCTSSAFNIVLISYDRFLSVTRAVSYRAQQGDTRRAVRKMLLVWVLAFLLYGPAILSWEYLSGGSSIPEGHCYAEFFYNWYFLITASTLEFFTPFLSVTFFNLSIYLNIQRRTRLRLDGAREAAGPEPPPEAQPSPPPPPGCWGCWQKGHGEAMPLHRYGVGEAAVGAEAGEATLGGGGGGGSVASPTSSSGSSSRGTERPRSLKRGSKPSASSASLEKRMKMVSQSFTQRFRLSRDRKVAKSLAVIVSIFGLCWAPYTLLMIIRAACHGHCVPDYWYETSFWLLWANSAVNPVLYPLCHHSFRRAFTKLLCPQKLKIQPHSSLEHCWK
Vasopressin V2 receptor, sequence (P30518 whole entry): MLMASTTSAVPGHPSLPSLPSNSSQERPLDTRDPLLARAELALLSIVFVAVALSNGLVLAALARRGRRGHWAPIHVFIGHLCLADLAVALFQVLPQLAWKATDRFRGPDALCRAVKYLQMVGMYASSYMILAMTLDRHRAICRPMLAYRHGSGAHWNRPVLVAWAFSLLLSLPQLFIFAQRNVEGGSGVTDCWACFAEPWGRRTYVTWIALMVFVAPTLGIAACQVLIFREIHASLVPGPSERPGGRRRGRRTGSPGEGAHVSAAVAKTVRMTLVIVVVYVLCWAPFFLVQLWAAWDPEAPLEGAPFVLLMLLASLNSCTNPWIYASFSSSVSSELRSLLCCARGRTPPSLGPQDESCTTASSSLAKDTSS

Structure (SMILES)	AC50 [1] [µM]	AC50 [2] [µM]	AC50 (Melanocortin receptor 3) [µM]	AC50 [3] [µM]	AC50 (Histamine H1 receptor) [µM]	AC50 (Vasopressin V2 receptor) [µM]	AC50 (Histamine H2 receptor) [µM]	AC50 [4] [µM]	AC50 (Histamine H3 receptor) [µM]	AC50 (Adenosine receptor A1) [µM]	AC50 [5] [µM]	AC50 (D(3) dopamine receptor) [µM]	AC50 [6] [µM]	AC50 [7] [µM]	AC50 [8] [µM]	AC50 [9] [µM]
OCc1cc(C(O)CNCCCCCCOCCCCc2ccccc2)ccc1O (centres undefined) [SALMETEROL]	> 30	8.1	> 30	> 10	> 10	> 30	> 10	> 30	> 10	> 30	> 30	8.9	> 10	> 10	> 30	
CC(=O)OCC(=O)[C@@]1(O)[C@H](C)C[C@H]2[C@@H]3CCC4=CC(=O)C=C[C@]4(C)[C@@]3(F)[C@@H](O)C[C@@]21C [DEXAMETHASONE ACETATE]	> 30	> 30	> 30	> 10	> 10	> 30	> 10	> 30	> 10	> 30	> 30	> 30	> 10	> 10	> 30	> 10
C/C(=C\C(=O)OCCCCCCCCC(=O)O)C[C@@H]1OC[C@H](C[C@@H]2O[C@H]2[C@@H](C)[C@H](C)O)[C@@H](O)[C@H]1O [MUPIROCIN]	> 10	> 30	> 10	> 10	> 10	> 10	> 10	> 10	> 10	> 10	> 30	> 30	> 10	> 10	> 30	> 10
O=C(O)c1ccccc1Nc1cc(Cl)ccc1C(=O)O [LOBENZARIT]	> 30	> 30	> 30	> 30	> 30	> 30	> 30		> 30	> 30	> 30	> 30	25	> 30	> 30	> 30
C[N@+]1(CCF)[C@@H]2CC[C@H]1C[C@@H](OC(=O)C(O)(c1ccccc1)c1ccccc1)C2	> 30	2.38	> 30	> 30	15	> 30	> 30	> 10	> 30	> 30	> 30	> 30	> 30	> 30	> 30	> 30
C=C[C@@]1(C)CC(=O)[C@]2(O)[C@@]3(C)[C@@H](O)CCC(C)(C)[C@@H]3[C@H](O)[C@H](OC(C)=O)[C@@]2(C)O1 [COLFORSIN]	> 30	> 30	> 30	> 30	> 30	> 30		> 30	> 30	> 30	> 30	> 30	> 30	> 30	> 30	> 30
CCC(COC(=O)c1cc(OC)c(OC)c(OC)c1)(c1ccccc1)N(C)C (centres undefined) [TRIMEBUTINE]	> 30	1.7	> 30	> 30	> 30	> 30	> 30	> 30	> 30	> 30	4	> 30	> 30	> 30	> 30	> 30
CCCCCC(=O)O[C@]1(C(C)=O)CC[C@H]2[C@@H]3CCC4=CC(=O)CC[C@]4(C)[C@H]3CC[C@@]21C [HYDROXYPROGESTERONE CAPROATE]	> 30	> 30	> 30	> 30	> 30	> 30	> 30	> 30	> 30	> 30	> 30	> 30	> 30	> 30	> 30	> 30
CCCCCCCCCCCCCCCCCCCCCC(=O)Nc1ccn([C@@H]2O[C@H](CO)[C@@H](O)[C@@H]2O)c(=O)n1 [ENOCITABINE]	> 30	> 30	> 30	> 30	> 30	> 30	> 30	> 30	> 30	> 30	> 30	> 30	> 30	> 30		> 30
CCN1CCCC1CNC(=O)c1cc(S(=O)(=O)CC)c(N)cc1OC (centres undefined) [AMISULPRIDE]	> 30		> 30	0.71	30	> 30	> 30	29	12	> 30	> 30		> 30	> 30	> 30	> 30
COc1cc2c(cc1OC)C(CCc1ccc(Cl)cc1)N(C)CC2 (centres undefined) [METHOPHOLINE]	> 30		> 30	> 10	> 10	> 30	> 10	0.77	> 30	> 30	> 30	> 30	> 10	> 10	> 30	> 30
